Values of other authors in US8961928B2, “Ligand and metal complex having the same” (National Chiao Tung University, priority 2012, dated 2015).
Like-named read-outs stand apart in the source and are kept apart here.

| Compound | Relaxivity r1 (pH 7.6 ± 0.1, data from Inorg. Chem., 2001, 40, 2170-2176) | Relaxivity r1 (pH 7.5 ± 0.1, data from Inorg. Chem., 2005, 44, 382) |
| --- | --- | --- |
| O=C([O-])CN(CCN(CC(=O)[O-])CC(=O)[O-])CCN(CC(=O)[O-])CC(=O)[O-].[Gd+3] [[Gd(DTPA)]^2−] | 3.89 ± 0.03 mM⁻¹ s⁻¹ |  |
| O=C([O-])CN(CCCN(CC(=O)[O-])CC(=O)[O-])CCN(CC(=O)[O-])CC(=O)[O-].[Gd+3] [[Gd(TTDA)]^2−] |  | 3.85 ± 0.03 mM⁻¹ s⁻¹ |
